Key:
Type in all cases: in vivo
[1] = tested on: bromegrass, downy (downy bromegrass, Bromus tectorum); experiment: Test C pre-/postemergence: bromegrass, downy
Method in brief: (§1)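 Visual injury scored 0–100 (100 = complete control) against untreated controls after 13–15 greenhouse days. Surfactant-containing solvent formulations applied either to soil after sowing (loam/sand) or over 1- to 4-leaf plants, 2–18 cm tall.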

[2] = tested on: foxtail, green (green foxtail, Setaria viridis); experiment: Test C pre-/postemergence: foxtail, green
Method in brief: as §1

[3] = tested on: surinam grass (Brachiaria decumbens); experiment: Test C pre-/postemergence: surinam grass
Method in brief: as §1

[4] = tested on: cocklebur (common cocklebur, Xanthium strumarium); experiment: Test C pre-/postemergence: cocklebur
Method in brief: as §1

[5] = tested on: goosegrass (Eleusine indica); experiment: Test C pre-/postemergence: goosegrass
Method in brief: as §1

[6] = tested on: nightshade (eastern black nightshade, Solanum ptycanthum); experiment: Test C pre-/postemergence: nightshade; conditions: Preemergence
Method in brief: as §1

[7] = tested on: barley (winter barley, Hordeum vulgare); experiment: Test C postemergence: barley
Method in brief: (§2)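 Visual ratings of 0 (no effect) to 100 (complete control) were made against controls 13-15 days after a postemergence spray, with plants kept in a greenhouse. Plants were 2-18 cm tall (1- to 4-leaf stage) in Redi-Earth peat/vermiculite medium at treatment.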

[8] = tested on: canarygrass (Phalaris minor); experiment: Test C postemergence: canarygrass
Method in brief: as §2

[9] = tested on: windgrass (Apera spica-venti); experiment: Test C postemergence: windgrass
Method in brief: as §2

[10] = tested on: deadnettle (henbit deadnettle, Lamium amplexicaule); experiment: Test C postemergence: deadnettle
Method in brief: as §2

[11] = Postemergence, 31 g ai/ha, scale 0 to 100 (0 no effect, 100 complete control)
[12] = Postemergence, 62 g ai/ha, scale 0 to 100 (0 no effect, 100 complete control)
[13] = Postemergence, 125 g ai/ha, scale 0 to 100, 0 no effect, 100 complete control
[14] = Postemergence, 250 g ai/ha, scale 0 to 100
[15] = Preemergence, 31 g ai/ha, scale of 0 to 100, 0 is no effect, 100 is complete control
[16] = Preemergence, 62 g ai/ha, scale 0 to 100, 0 no effect, 100 complete control
[17] = Preemergence, 125 g ai/ha, scale 0 to 100, 0 no effect, 100 complete control
[18] = Preemergence, 250 g ai/ha, scale 0 to 100, 0 no effect, 100 complete control
[19] = Preemergence, 62 g ai/ha, scale of 0 to 100, 0 is no effect, 100 is complete control
[20] = 31 g ai/ha, scale of 0 to 100, 0 is no effect, 100 is complete control
[21] = 62 g ai/ha, scale of 0 to 100, 0 is no effect, 100 is complete control
[22] = 125 g ai/ha, scale 0 to 100, 0 no effect, 100 complete control
[23] = 250 g ai/ha, scale 0 to 100, 0 no effect, 100 complete control
[24] = 31 g ai/ha, scale 0 to 100 (0 no effect, 100 complete control)
[25] = 62 g ai/ha, scale 0 to 100 (0 no effect, 100 complete control)

Compound: FC(F)(F)COc1nn(-c2ccc(C(F)(F)F)cc2)nc1Cc1ccnc(C(F)(F)F)c1 [Compound 14, 4-[[5-(2,2,2-trifluoroethoxy)-2-[4-(trifluoromethyl)phenyl]-2H-1,2,3-triazol-4-yl]methyl]-2-(trifluoromethyl)pyridine]
- Plant response rating, Bromegrass, Downy [1, 11]: 30
- Plant response rating, Bromegrass, Downy [1, 12]: 40
- Plant response rating, Bromegrass, Downy [1, 13]: 40
- Plant response rating, Bromegrass, Downy [1, 14]: 45
- Plant response rating, Bromegrass, Downy [1, 15]: 30
- Plant response rating, Bromegrass, Downy [1, 16]: 35
- Plant response rating, Bromegrass, Downy [1, 17]: 60
- Plant response rating, Bromegrass, Downy [1, 18]: 98
- Plant response rating, Foxtail, Green [2, 11]: 70
- Plant response rating, Foxtail, Green [2, 13]: 90
- Plant response rating, Foxtail, Green [2, 14]: 90
- Plant response rating, Foxtail, Green [2, 15]: 80
- Plant response rating, Foxtail, Green [2, 19]: 100
- Plant response rating, Foxtail, Green [2, 17]: 100
- Plant response rating, Foxtail, Green [2, 18]: 100
- Plant response rating, Surinam Grass [3, 11]: 5
- Plant response rating, Surinam Grass [3, 12]: 5
- Plant response rating, Surinam Grass [3, 13]: 30
- Plant response rating, Surinam Grass [3, 14]: 55
- Plant response rating, Surinam Grass [3, 15]: 20
- Plant response rating, Surinam Grass [3, 19]: 45
- Plant response rating, Surinam Grass [3, 17]: 60
- Plant response rating, Surinam Grass [3, 18]: 85
- Plant response rating, Cocklebur [4, 11]: 5
- Plant response rating, Cocklebur [4, 12]: 5
- Plant response rating, Cocklebur [4, 13]: 45
- Plant response rating, Cocklebur [4, 14]: 75
- Plant response rating, Cocklebur [4, 15]: 0
- Plant response rating, Cocklebur [4, 17]: 20
- Plant response rating, Cocklebur [4, 18]: 45
- Plant response rating, Goosegrass [5, 11]: 5
- Plant response rating, Goosegrass [5, 12]: 5
- Plant response rating, Goosegrass [5, 13]: 60
- Plant response rating, Goosegrass [5, 14]: 75
- Plant response rating, Goosegrass [5, 15]: 98
- Plant response rating, Goosegrass [5, 19]: 100
- Plant response rating, Goosegrass [5, 17]: 100
- Plant response rating, Goosegrass [5, 18]: 100
- Plant response rating, Nightshade [6, 20]: 55
- Plant response rating, Nightshade [6, 21]: 80
- Plant response rating, Nightshade [6, 22]: 95
- Plant response rating, Nightshade [6, 23]: 98
- Plant response rating, Barley [7, 24]: 30
- Plant response rating, Barley [7, 25]: 35
- Plant response rating, Barley [7, 22]: 50
- Plant response rating, Barley ([7]; 250 g ai/ha, scale 0 to 100): 50
- Plant response rating, Canarygrass [8, 24]: 55
- Plant response rating, Canarygrass [8, 25]: 80
- Plant response rating, Canarygrass [8, 22]: 85
- Plant response rating, Canarygrass ([8]; 250 g ai/ha, scale 0 to 100): 85
- Plant response rating, Windgrass [9, 24]: 70
- Plant response rating, Windgrass [9, 25]: 90
- Plant response rating, Windgrass [9, 22]: 95
- Plant response rating, Windgrass ([9]; 250 g ai/ha, scale 0 to 100): 95
- Plant response rating, Deadnettle [10, 24]: 98
- Plant response rating, Deadnettle [10, 25]: 98
- Plant response rating, Deadnettle [10, 22]: 100
- Plant response rating, Deadnettle ([10]; 250 g ai/ha, scale 0 to 100): 100

Compound: Fc1ccc(-n2nc(Cc3ccnc(C(F)(F)F)c3)c(OC(F)F)n2)cc1 [Compound 25]
- Plant response rating, Bromegrass, Downy [1, 11]: 5
- Plant response rating, Bromegrass, Downy [1, 12]: 5
- Plant response rating, Bromegrass, Downy [1, 13]: 5
- Plant response rating, Bromegrass, Downy [1, 14]: 10
- Plant response rating, Bromegrass, Downy [1, 15]: 5
- Plant response rating, Bromegrass, Downy [1, 16]: 5
- Plant response rating, Bromegrass, Downy [1, 17]: 40
- Plant response rating, Bromegrass, Downy [1, 18]: 80
- Plant response rating, Foxtail, Green [2, 11]: 35
- Plant response rating, Foxtail, Green [2, 12]: 35
- Plant response rating, Foxtail, Green [2, 13]: 35
- Plant response rating, Foxtail, Green [2, 14]: 70
- Plant response rating, Foxtail, Green [2, 15]: 90
- Plant response rating, Foxtail, Green [2, 19]: 95
- Plant response rating, Foxtail, Green [2, 17]: 95
- Plant response rating, Foxtail, Green [2, 18]: 95
- Plant response rating, Surinam Grass [3, 11]: 10
- Plant response rating, Surinam Grass [3, 12]: 15
- Plant response rating, Surinam Grass [3, 13]: 20
- Plant response rating, Surinam Grass [3, 14]: 20
- Plant response rating, Surinam Grass [3, 15]: 15
- Plant response rating, Surinam Grass [3, 19]: 20
- Plant response rating, Surinam Grass [3, 17]: 55
- Plant response rating, Surinam Grass [3, 18]: 100
- Plant response rating, Cocklebur [4, 11]: 15
- Plant response rating, Cocklebur [4, 12]: 20
- Plant response rating, Cocklebur [4, 13]: 20
- Plant response rating, Cocklebur [4, 14]: 20
- Plant response rating, Cocklebur [4, 15]: 0
- Plant response rating, Cocklebur [4, 16]: 0
- Plant response rating, Cocklebur [4, 17]: 0
- Plant response rating, Cocklebur [4, 18]: 30
- Plant response rating, Goosegrass [5, 11]: 15
- Plant response rating, Goosegrass [5, 12]: 20
- Plant response rating, Goosegrass [5, 13]: 25
- Plant response rating, Goosegrass [5, 14]: 40
- Plant response rating, Goosegrass [5, 15]: 90
- Plant response rating, Goosegrass [5, 19]: 100
- Plant response rating, Goosegrass [5, 17]: 100
- Plant response rating, Goosegrass [5, 18]: 100
- Plant response rating, Nightshade [6, 20]: 10
- Plant response rating, Nightshade [6, 21]: 45
- Plant response rating, Nightshade [6, 22]: 95
- Plant response rating, Nightshade [6, 23]: 95
- Plant response rating, Barley [7, 24]: 20
- Plant response rating, Barley [7, 25]: 25
- Plant response rating, Barley [7, 22]: 30
- Plant response rating, Barley ([7]; 250 g ai/ha, scale 0 to 100): 30
- Plant response rating, Canarygrass [8, 24]: 5
- Plant response rating, Canarygrass [8, 25]: 10
- Plant response rating, Canarygrass [8, 22]: 30
- Plant response rating, Canarygrass ([8]; 250 g ai/ha, scale 0 to 100): 55
- Plant response rating, Windgrass [9, 24]: 30
- Plant response rating, Windgrass [9, 25]: 35
- Plant response rating, Windgrass [9, 22]: 40
- Plant response rating, Windgrass ([9]; 250 g ai/ha, scale 0 to 100): 40
- Plant response rating, Deadnettle [10, 24]: 50
- Plant response rating, Deadnettle [10, 25]: 55
- Plant response rating, Deadnettle [10, 22]: 90
- Plant response rating, Deadnettle ([10]; 250 g ai/ha, scale 0 to 100): 100

From US9302999B2, “Substituted triazoles as herbicides” (E. I. DU PONT DE NEMOURS AND COMPANY, priority 2012, dated 2016)
